Reference: patent publication US8124764B2, “Fused heterocyclyc inhibitor compounds” (Gilead Sciences, Inc., priority 2008, dated 2012)

Columns and labels:
[1] = target: CDK2 (Homo sapiens, UniProt P24941); test: CDK2 inhibition; type: biochemical
[2] = target: HDAC 1 (Homo sapiens, UniProt Q13547); test: HDAC 1 inhibition assay with about 3 hours enzyme/compound preincubation (fluorophore/quencher peptide substrate); type: biochemical; details: 3-hour preincubation of enzyme with compound; read-out: HDAC 1 inhibitory activity (IC50 [μM]) (3-hour preincubation)
HDAC 1, sequence (Q13547 whole entry, species assumed): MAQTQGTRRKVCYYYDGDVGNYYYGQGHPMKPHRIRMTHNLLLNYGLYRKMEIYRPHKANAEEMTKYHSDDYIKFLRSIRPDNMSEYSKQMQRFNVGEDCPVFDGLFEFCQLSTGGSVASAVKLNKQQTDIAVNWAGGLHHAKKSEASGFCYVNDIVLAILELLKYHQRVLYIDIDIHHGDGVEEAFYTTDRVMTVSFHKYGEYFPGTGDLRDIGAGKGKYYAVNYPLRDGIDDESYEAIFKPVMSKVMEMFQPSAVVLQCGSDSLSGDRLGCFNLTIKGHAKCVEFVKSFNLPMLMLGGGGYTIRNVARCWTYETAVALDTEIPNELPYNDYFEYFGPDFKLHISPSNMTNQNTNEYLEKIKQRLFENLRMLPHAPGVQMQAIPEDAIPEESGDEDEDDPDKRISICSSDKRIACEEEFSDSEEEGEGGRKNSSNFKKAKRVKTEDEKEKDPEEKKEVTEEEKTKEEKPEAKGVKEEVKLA
Procedure: HDAC inhibitory activity of the compound of Example 1 was measured by two types of assays in which HDAC 1 was used as a target molecule. The first assay was carried out without preincubation after addition of the enzyme. The test compound was suspended in and titrated in dmso. It was then spotted into a 384-well test plate. The enzyme, HDAC 1, was diluted in assay buffer containing 25 mM Tris-HCl (pH 8.0), 137 mM NaCl, 2.7 mM KCl, and 0.01% Tween-20 and added to the pre-spotted compound. The peptide substrate containing a fluorophore/quencher pair was diluted in the same assay buffer and added to the compound/enzyme mix initiating the reaction. The reaction incubated at room temperature for about 45 minutes. A concentrated developer solution was diluted in the assay buffer, and added to the reaction. The reaction was incubated at room temperature for about 15 minutes and relative fluorescence was read on an instrument reader.
The second assay is similar to the first assay described above, except that preincubation is carried out for about 3 hours after the enzyme is introduced. The test compound was suspended in, and titrated in DMSO. It was then spotted into a 384-well test plate. The enzyme, HDAC 1, was diluted in the same assay buffer as used in the previous assay and added to the pre-spotted compound. The enzyme/compound mix was incubated at room temperature for about 3 hours. The peptide substrate containing a fluorophore/quencher pair was diluted in the assay buffer and added to the compound/enzyme mix initiating the reaction. The reaction incubated at room temperature for 45 minutes. A concentrated developer solution was diluted in the assay buffer, and added to the reaction. The reaction was incubated at room temperature for about 15 minutes and relative fluorescence was read on an instrument reader.

SMILES	IC50 [1]	IC50 [2]
Cc1nc2ccccn2c1-c1ccnc(Nc2ccc(C(=O)NO)cc2)c1 [Example 53, N-Hydroxy-4-[4-(2-methyl-imidazo[1,2-a]pyridin-3-yl)-pyridin-2-ylamino]-benzamide]	3.6 µM	0.021 µM
Cc1nc2ccccn2c1-c1ccnc(Nc2ccc(C(=O)Nc3ccccc3N)cc2)c1 [Example 54, N-(2-Amino-phenyl)-4-[4-(2-methyl-imidazo[1,2-a]pyridin-3-yl)-pyridin-2-ylamino]-benzamide]	13.1 µM	0.053 µM
Nc1ccccc1NC(=O)c1ccc(Nc2cc(-c3cnc4ccccn34)ncn2)cc1 [Example 55, N-(2-Amino-phenyl)-4-(6-imidazo[1,2-a]pyridin-3-yl-pyrimidin-4-ylamino)-benzamide]	> 40 µM	0.2 µM
O=C(NO)c1ccc(N(CC(F)(F)F)c2nccc(-c3cnc4ccccn34)n2)cc1 [Example 57, N-Hydroxy-4-[(4-imidazo[1,2-a]pyridin-3-yl-pyrimidin-2-yl)-(2,2,2-trifluoro-ethyl)-amino]-benzamide]	2.87 µM	0.147 µM
Nc1ccccc1NC(=O)c1ccc(N(CC(F)(F)F)c2nccc(-c3cnc4ccccn34)n2)cc1 [Example 58, N-(2-Amino-phenyl)-4-[(4-imidazo[1,2-a]pyridin-3-yl-pyrimidin-2-yl)-(2,2,2-trifluoro-ethyl)-amino]-benzamide]	> 40 µM	5.58 µM
Cc1nc2ccccn2c1-c1ccnc(Nc2cc(C(=O)Nc3ccccc3N)cs2)n1 [Example 59, N-(2-aminophenyl)-5-(4-(2-methylimidazo[1,2-a]pyridin-3-yl)pyrimidin-2-ylamino)thiophene-3-carboxamide]	0.04 µM	0.993 µM
Cc1nc2ccccn2c1-c1ccnc(Nc2nc(C(=O)Nc3ccccc3N)cs2)n1 [Example 62, N-(2-aminophenyl)-2-(4-(2-methylimidazo[1,2-a]pyridin-3-yl)pyrimidin-2-ylamino)thiazole-4-carboxamide]	1.36 µM	> 10 µM
Cc1nc2ccccn2c1-c1ccnc(Nc2ccc(C(=O)Nc3ccccc3N)cn2)n1 [Example 66, N-(2-aminophenyl)-6-(4-(2-methylimidazo[1,2-a]pyridin-3-yl)pyrimidin-2-ylamino)nicotinamide]	3.48 µM	0.289 µM

Other lines, results leading:

IC50 [1]	IC50 [2]	SMILES
0.07 µM	0.31 µM	Cc1nc2ccccn2c1-c1ccnc(Nc2ccc(C(=O)NO)s2)n1 [Example 52, N-hydroxy-5-(4-(2-methylimidazo[1,2-a]pyridin-3-yl)pyrimidin-2-ylamino)thiophene-2-carboxamide]
0.03 µM	0.164 µM	Cc1nc2ccccn2c1-c1ccnc(Nc2cc(C(=O)NO)cs2)n1 [Example 60, N-hydroxy-5-(4-(2-methylimidazo[1,2-a]pyridin-3-yl)pyrimidin-2-ylamino)thiophene-3-carboxamide]
0.56 µM	1.8 µM	Cc1nc2ccccn2c1-c1ccnc(Nc2nc(C(=O)NO)cs2)n1 [Example 61, N-hydroxy-2-(4-(2-methylimidazo[1,2-a]pyridin-3-yl)pyrimidin-2-ylamino)thiazole-4-carboxamide]
3.53 µM	0.224 µM	Cc1nc2ccccn2c1-c1ccnc(Nc2ncc(C(=O)Nc3ccccc3N)s2)n1 [Example 63, N-(2-aminophenyl)-2-(4-(2-methylimidazo[1,2-a]pyridin-3-yl)pyrimidin-2-ylamino)thiazole-5-carboxamide]
0.52 µM	0.094 µM	Cc1nc2ccccn2c1-c1ccnc(Nc2ccc(C(=O)NO)cn2)n1 [Example 64, N-hydroxy-6-(4-(2-methylimidazo[1,2-a]pyridin-3-yl)pyrimidin-2-ylamino)nicotinamide]
1.86 µM	0.109 µM	Cc1nc2ccccn2c1-c1ccnc(Nc2ncc(C(=O)NO)s2)n1 [Example 65, N-hydroxy-2-(4-(2-methylimidazo[1,2-a]pyridin-3-yl)pyrimidin-2-ylamino)thiazole-5-carboxamide]
